{
  "source": "patent US8034329B2",
  "about": "“Repair and regeneration of renal tissue using human umbilical cord tissue-derived cells” (Advanced Technologies And Regenerative Medicine, LLC, priority 2007, dated 2011)",
  "tested_on": "HLA-DR, DP, DQ expression of hUTC",
  "test": "Inhibition of IFN-gamma-induced expression of HLA-DR, DP, DQ on hUTC, flow cytometry",
  "assay_type": "cell-based, human",
  "experimental": "Culture-expanded human umbilical cord tissue-derived cells (022803 P4) were seeded into 6-well tissue culture plates and cultured in Dulbecco's Modified Eagles Media (DMEM)-low glucose, 15% fetal bovine serum (FBS), penicillin/streptomycin (P/S), Betamercaptoethanol (BME) to approximately 70% confluence. The cells were then treated with media containing 10 μM of respective HMG-CoA reductase inhibitor (Simvastatic acid (Alexis Biochemicals, Lausen, Switzerland) formulated as 10 mM stock reagents in DMSO) or DMSO vehicle—0.1% (Sigma, St. Louis, Mo.) and incubated overnight. The media was removed by aspiration and replaced with media containing 500 U/ml rhIFN-gamma (BD Pharmingen, Franklin Lakes, N.J.) and […] of respective HMG-CoA reductase inhibitor and incubated for 3 days. On day three, cells were harvested with trypsin.\nHarvested cells were washed once with PBS and re-suspended in 100 μl of 3% FBS in PBS with 20 μl FITC-labeled HLA-DR,DP,DQ (BD Biosciences, Franklin Lakes, N.J.) or FITC-labeled IgG antibody (BD Biosciences, Franklin Lakes, N.J.) and incubated for one hour. Cells were washed once in PBS and resuspended in 500 μl PBS and analyzed on a FACSCalibur flow cytometer (BS Biosciences, Franklin Lakes, N.J.).",
  "data": [
    {"smiles": "CCC(C)(C)C(=O)O[C@H]1C[C@@H](C)C=C2C=C[C@H](C)[C@H](CC[C@@H]3C[C@@H](O)CC(=O)O3)[C@H]21", "note": "[Simvastatin]", "values": [
      {"measurement": "HLA-DR, DP, DQ expression, FITC fluorescence intensity, IFN-gamma-treated, mean", "setting": "10 μM inhibitor overnight, then 500 U/ml rhIFN-gamma plus inhibitor 3 days", "result": 5.57},
      {"measurement": "HLA-DR, DP, DQ expression, FITC fluorescence intensity, No cytokine treatment, Mean", "setting": "10 μM inhibitor, no IFN-gamma", "result": 5.66},
      {"measurement": "FITC fluorescence intensity, IgG control, mean", "setting": "10 μM inhibitor, FITC-labeled IgG antibody", "result": 4.4}
    ]}
  ]
}
